Tested on: JAX WT DIO
Assay: Rimonabant 3 mg/kg QD in JAX WT DIO mice (12 weeks HFD): body weight, fat mass, liver weight
Assay type: in vivo, mouse
Details: JAX WT DIO (12 weeks HFD), 3 mg/kg (6.5 μmol/kg, QD)

For Cc1c(C(=O)NN2CCCCC2)nn(-c2ccc(Cl)cc2Cl)c1-c1ccc(Cl)cc1 [Rimonabant, rimonabant], the “Fat Mass % Change” value (Day 15) was −23%, the “Liver Weight % Change (Day)” value (Day 17) was −7% and the “BW % Change” value (day 17) was −12.9%.

Reference: patent publication US20250277029A1, “CANNABINOID TYPE 1 RECEPTOR BINDING PROTEINS AND USES THEREOF” (AMGEN INC., priority 2022, published 2025)
